# Assay results as given in patent publication US20050101595A1, “N-containing cycloalkyl-substituted amino-thiazole derivatives and pharmaceutical compositions for inhibiting cell proliferation and methods for their use” (PFIZER INC., priority 2003, published 2005).
# Structures can show the parent of a compound that is named as a salt. Where two headings read alike, the source gives them in different places.
# Columns and labels:
# [1] = system: HCT-116 cell line; test: Inhibition of cell growth, tetrazolium salt (MTT) assay; type: cell-based; conditions: for IC50: Homo sapiens, HCT-116, 120 h, MTT, three to five days, read-out: HCT-116 IC50; for HCT-116 % Inhibition at 0.1 μM / HCT-116 5 Inhibition at 0.25 μM: HCT-116 cells
# How it was run: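 Growth inhibition by MTT reduction at 540 nm (0.2 mg/mL, 4 h at 37° C, formazan dissolved in DMSO), normalized to cells given only 0.5% v/v DMSO. HCT-116 cultures in McCoy's 5A were dosed 4 h post-plating and kept three to five days at 37° C, 5% CO2.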
# [2] = molecular target: CDK2/Cyclin A (Homo sapiens, UniProt P24941); test: Inhibition of CDK2/Cyclin A Retinoblastoma Kinase Activity; type: biochemical
# How it was run: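 Percent inhibition is calculated against DMSO-only wells after subtracting no-enzyme background. The enzyme is human CDK2 complexed with proteolyzed cyclin A, used at 10 nM or 19 nM on an Rb fragment with 25 μM [32/33P]ATP, at pH 7.4 and 30° C.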
# [3] = molecular target: human CDK4 and genetically truncated (1-264) cyclin D3 (Homo sapiens, UniProt P11802); test: Inhibition of CDK4/Cyclin D Retinoblastoma Kinase Activity; type: biochemical
# How it was run: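 Apparent Ki values derive from fitting activity at varied inhibitor concentrations to a competitive (or competitive tight-binding) model. Kinase reactions used 5 nM CDK4/cyclin D3(1-264), Rb fragment substrate and 25 μM ATP. Incubation ran 20 min at 30 °C, extended to 60 min under linear conditions for tight binders.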
# human CDK4 and genetically truncated (1-264) cyclin D3, sequence (P11802 whole entry, the tested form may be a part): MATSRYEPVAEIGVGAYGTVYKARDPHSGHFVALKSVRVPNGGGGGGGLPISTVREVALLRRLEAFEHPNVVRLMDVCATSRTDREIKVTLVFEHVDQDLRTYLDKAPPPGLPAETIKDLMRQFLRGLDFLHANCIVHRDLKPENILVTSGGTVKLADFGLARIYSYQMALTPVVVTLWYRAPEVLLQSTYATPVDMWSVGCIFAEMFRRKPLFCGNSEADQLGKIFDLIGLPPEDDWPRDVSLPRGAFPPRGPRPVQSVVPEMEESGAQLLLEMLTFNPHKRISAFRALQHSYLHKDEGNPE
# human CDK4 and genetically truncated (1-264) cyclin D3, sequence (P30281 1-264 partner): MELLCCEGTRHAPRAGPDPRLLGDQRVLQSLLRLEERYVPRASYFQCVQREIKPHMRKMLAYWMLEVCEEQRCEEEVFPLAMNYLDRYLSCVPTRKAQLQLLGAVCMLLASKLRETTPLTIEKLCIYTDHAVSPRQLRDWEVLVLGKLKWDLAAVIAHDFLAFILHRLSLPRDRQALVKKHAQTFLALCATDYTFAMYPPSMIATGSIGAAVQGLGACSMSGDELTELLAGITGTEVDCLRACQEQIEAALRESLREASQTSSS
SMILES,melting point,IC50 ([1]; first HCT-116 column (c4)),IC50 ([1]; second HCT-116 column (c5)),"Ki ([2]; apparent Ki, CDK2/proteolyzed cyclin A, Rb fragment substrate, 25 μM ATP)","Ki ([3]; apparent Ki, CDK4/truncated cyclin D3, Rb fragment substrate, 25 μM ATP)",CDK2 % Inhibition at 0.03 μM [2],CDK4 % Inhibition at 0.03 μM [3],HCT-116 % Inhibition at 0.1 μM [1],HCT-116 5 Inhibition at 0.25 μM [1]
"CN(C)CCCc1ccc(S(=O)(=O)N2CCC(Nc3nc(N)c(C(=O)c4c(F)cccc4F)s3)CC2)cc1 (as salt: salt) [Example I10, 1-(4-Amino-2-{1-[4-(3-dimethylamino-propyl)-benzenesulfonyl]-piperidin-4-ylamino}-thiazol-5-yl)-1-(2,6-difluoro-phenyl)-methanone D-Glucuronic Acid Salt]",117 to 120 °C,–,–,–,–,–,–,–,–
Nc1nc(NC2CCN(S(=O)(=O)c3ccc(N4CCC[C@H](CO)C4)nc3)CC2)sc1C(=O)c1c(F)cccc1F [Example G18],> 149 °C (dec.),120 nM,600 nM,0.39 nM,0.58 nM,–,–,–,–
Nc1nc(NC2CCN(C(=O)c3ccc(-c4ccccc4)cc3)CC2)sc1C(=O)c1c(F)cccc1F [Example R149],–,–,–,–,–,28%,51%,11%,43
Nc1nc(NC2CCN(C(=O)c3ccc(C(F)(F)F)cc3)CC2)sc1C(=O)c1c(F)cccc1F [Example R152],–,–,–,–,–,17%,41%,0%,40
COc1cc(C(=O)N2CCC(Nc3nc(N)c(C(=O)c4c(F)cccc4F)s3)CC2)ccc1C [Example R155],–,–,–,–,–,45%,67%,0%,67
CCCCCc1ccc(C(=O)N2CCC(Nc3nc(N)c(C(=O)c4c(F)cccc4F)s3)CC2)cc1 [Example R158],–,–,–,–,–,24%,44%,0%,41
CC(Oc1ccccc1)C(=O)N1CCC(Nc2nc(N)c(C(=O)c3c(F)cccc3F)s2)CC1 (centres unmarked) [Example R159],–,–,–,–,–,14%,36%,0%,46
CC(C(=O)N1CCC(Nc2nc(N)c(C(=O)c3c(F)cccc3F)s2)CC1)c1ccccc1 (centres unmarked) [Example R160],–,–,–,–,–,7%,6%,0%,37
CC(=Cc1ccccc1)C(=O)N1CCC(Nc2nc(N)c(C(=O)c3c(F)cccc3F)s2)CC1 [Example R161],–,–,–,–,–,26%,53%,0%,34
CCC(Oc1ccccc1)C(=O)N1CCC(Nc2nc(N)c(C(=O)c3c(F)cccc3F)s2)CC1 (centres unmarked) [Example R162],–,–,–,–,–,27%,32%,0%,34
CCC(C(=O)N1CCC(Nc2nc(N)c(C(=O)c3c(F)cccc3F)s2)CC1)c1ccccc1 (centres unmarked) [Example R163],–,–,–,–,–,26%,28%,0%,44
CCC(CC)C(=O)N1CCC(Nc2nc(N)c(C(=O)c3c(F)cccc3F)s2)CC1 [Example R164],–,–,–,–,–,9%,19%,0%,41
CCCC(C)C(=O)N1CCC(Nc2nc(N)c(C(=O)c3c(F)cccc3F)s2)CC1 (centres unmarked) [Example R165],–,–,–,–,–,3%,22%,0%,42
CCCC(CCC)C(=O)N1CCC(Nc2nc(N)c(C(=O)c3c(F)cccc3F)s2)CC1 [Example R166],–,–,–,–,–,17%,37%,0%,44
CCCCC(C)C(=O)N1CCC(Nc2nc(N)c(C(=O)c3c(F)cccc3F)s2)CC1 (centres unmarked) [Example R167],–,–,–,–,–,−2%,11%,0%,42
CCCCC(CC)C(=O)N1CCC(Nc2nc(N)c(C(=O)c3c(F)cccc3F)s2)CC1 (centres unmarked) [Example R168],–,–,–,–,–,6%,−4%,0%,42
CC(C)=CCCC(C)CC(=O)N1CCC(Nc2nc(N)c(C(=O)c3c(F)cccc3F)s2)CC1 (centres unmarked) [Example R170],–,–,–,–,–,21%,22%,0%,23
CCC(C)CC(=O)N1CCC(Nc2nc(N)c(C(=O)c3c(F)cccc3F)s2)CC1 (centres unmarked) [Example R171],–,–,–,–,–,23%,39%,0%,46
Nc1nc(NC2CCN(C(=O)CCOc3ccccc3)CC2)sc1C(=O)c1c(F)cccc1F [Example R173],–,–,–,–,–,23%,43%,0%,43
COc1ccccc1CCC(=O)N1CCC(Nc2nc(N)c(C(=O)c3c(F)cccc3F)s2)CC1 [Example R175],–,–,–,–,–,19%,41%,0%,47

# The next lines start with results.
melting point,IC50 ([1]; first HCT-116 column (c4)),IC50 ([1]; second HCT-116 column (c5)),"Ki ([2]; apparent Ki, CDK2/proteolyzed cyclin A, Rb fragment substrate, 25 μM ATP)","Ki ([3]; apparent Ki, CDK4/truncated cyclin D3, Rb fragment substrate, 25 μM ATP)",CDK2 % Inhibition at 0.03 μM [2],CDK4 % Inhibition at 0.03 μM [3],SMILES,HCT-116 % Inhibition at 0.1 μM [1],HCT-116 5 Inhibition at 0.25 μM [1]
–,–,–,–,–,20%,49%,COc1ccc(C(=O)N2CCC(Nc3nc(N)c(C(=O)c4c(F)cccc4F)s3)CC2)cc1 [Example R148],0%,42
–,–,–,–,–,40%,62%,CSc1ccc(C(=O)N2CCC(Nc3nc(N)c(C(=O)c4c(F)cccc4F)s3)CC2)cc1 [Example R150],2%,39
–,–,–,–,–,24%,39%,COC(=O)c1ccc(C(=O)N2CCC(Nc3nc(N)c(C(=O)c4c(F)cccc4F)s3)CC2)cc1 [Example R151],0%,43
–,–,–,–,–,37%,58%,CC(C)(C)c1ccc(C(=O)N2CCC(Nc3nc(N)c(C(=O)c4c(F)cccc4F)s3)CC2)cc1 [Example R153],0%,44
–,–,–,–,–,50%,63%,Cc1ccc(C(=O)N2CCC(Nc3nc(N)c(C(=O)c4c(F)cccc4F)s3)CC2)cc1 [Example R154],0%,27
–,–,–,–,–,65%,89%,C=Cc1ccc(C(=O)N2CCC(Nc3nc(N)c(C(=O)c4c(F)cccc4F)s3)CC2)cc1 [Example R156],0%,43
–,–,–,–,–,22%,47%,CCc1ccc(C(=O)N2CCC(Nc3nc(N)c(C(=O)c4c(F)cccc4F)s3)CC2)cc1 [Example R157],0%,42
–,–,–,–,–,22%,40%,Nc1nc(NC2CCN(C(=O)CNc3ccc(O)cc3)CC2)sc1C(=O)c1c(F)cccc1F [Example R169],0%,39
–,–,–,–,–,34%,49%,CCC(=O)N1CCC(Nc2nc(N)c(C(=O)c3c(F)cccc3F)s2)CC1 [Example R172],0%,49
–,–,–,–,–,21%,42%,Nc1nc(NC2CCN(C(=O)CCc3ccccc3)CC2)sc1C(=O)c1c(F)cccc1F [Example R174],0%,48
–,–,–,–,–,2%,4%,COc1ccc(CCC(=O)N2CCC(Nc3nc(N)c(C(=O)c4c(F)cccc4F)s3)CC2)cc1 [Example R176],1%,43
